These results are taken from US20100087413A1, “Prevention and treatment of inflammation-induced and/or immune-mediated bone loss” (priority 2003, published 2010).

The test system of assay [1] is Adjuvant-Induced Arthritis (AIA). Put plainly: Adjuvant-induced arthritis (AIA), histology of hind joint sections from arthritic rats. Format: in vivo. The settings on record: rat AIA, injected i.d. early (day0, day2, day4) or late (day9, day11, day13). The text has this: An intradermal injection, at the base of the tail, with heat killed Mycobaterium tuberculosum in incomplete Feund's Adjuvans results in destructive arthritis within 14 days in susceptible DA or LEW inbred rat strains. AIA can also be induced with cell walls from other bacterial types in IFA, although the arthritogenicity varies. Increased synthesis of tumor necrosis factor a (TNF-a), interleukin 1 (IL-1) and IL-6 is detected as early as day four after adjuvant injection. The disease progresses rapidly over several weeks in what appears clinically to be a monophasic process.
BX-1 early: BX-1 injected i.d. at the time of disease induction (day0) and day2, day4 BX-1 late: BX-1 injected i.d. at first signs of arthritis, day9, day11, day13.
Samples are from both left and right hind limb of three rats per group of a representative experiment
Rat ankle slides were histologically evaluated according to five criteria (blind evaluation by DL Boyle et al., University of California in San Diego, (J. Immunol., January 2002; 168: 51-56.): • 1. Extra-articular inflammation • 2. Bone marrow inflammation (BM) • 3. Synovial inflammation • 4. Cartilage/bone erosion • 5. Proteoglycan damage

Another assay concerns the target T1, human 11β-HSD1 (Homo sapiens, UniProt P28845).
T1 construct: expressed in transfected cells; host or cells: HEK-293 cells, stably transfected; cell lysate
Put plainly: 11β-HSD1 reductase activity (conversion of radiolabelled cortisone to cortisol) in lysates of stably transfected HEK-293 cells. Format: biochemical. The settings on record: 10 μM CBX, 100 nM cortisone substrate.

T1 sequence (P28845 whole entry): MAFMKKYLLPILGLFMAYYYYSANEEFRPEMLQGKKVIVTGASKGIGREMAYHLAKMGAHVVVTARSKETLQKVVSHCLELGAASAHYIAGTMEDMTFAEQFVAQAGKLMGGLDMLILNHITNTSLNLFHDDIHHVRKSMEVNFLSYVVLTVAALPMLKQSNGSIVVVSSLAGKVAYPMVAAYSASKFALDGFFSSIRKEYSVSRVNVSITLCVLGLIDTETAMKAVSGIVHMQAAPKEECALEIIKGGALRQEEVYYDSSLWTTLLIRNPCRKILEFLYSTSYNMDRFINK

As to `CC1(C)[C@@H](O)CC[C@]2(C)[C@H]3C(=O)C=C4[C@@H]5C[C@@](C)(C(=O)O)CC[C@]5(C)CC[C@@]4(C)[C@]3(C)CC[C@@H]12` [BX-1, 18-β-glycyrrhetinic acid], the “influence on the pathology of arthritis (T-cell and dendritic cell activation, systemic inflammation, bone marrow infiltration)” value in assay [1] is reported as “positively influence all arms of the pathology of arthritis”.
As for `CC1(C)[C@@H](OC(=O)CCC(=O)O)CC[C@]2(C)[C@H]3C(=O)C=C4[C@@H]5C[C@@](C)(C(=O)O)CC[C@]5(C)CC[C@@]4(C)[C@]3(C)CC[C@@H]12` [CBX, carbenoxolone], on human 11β-HSD1, the “11β-HSD1 % of control” value is reported as 4.43 % of control.
